Experimental data reported in patent US11224601B1, “Compounds that inhibits MCL-1 protein” (priority 2017, dated 2022).
pIC50: −log10 of the molar value. Read-outs that look alike come from different tables or passages of the source.

Tested on: OPM-2 human multiple myeloma cell line
Experiment: Cell Viability Assay (OPM-2 10 FBS), CellTiter-Glo
Format: cell-based
Details: for pIC50: read-out: OPM-2 10% FBS IC50 IP, OPM-2 cells, 10% FBS, 16 h, CellTiter-Glo; for IC50: Homo sapiens, OPM-2, 16 h, read-out: OPM-2 10% FBS IC50 IP (μM), OPM-2 cells, 10% FBS, 16 h, CellTiter-Glo
Protocol: Cell Viability Assay (OPM-2 10 FBS)
The human multiple myeloma cell line, OPM-2, was cultured in complete growth medium containing RPMI 1640 and 10% fetal bovine serum (FBS). Cells were seeded into 384-well plates at 3000 cells/well density in complete growth medium containing 10% FBS, and incubated for 16 h with serially diluted test compounds in a 37° C. incubator with 5% CO2. Cell viability was tested using CellTiter-Glo® assay (Promega, Madison, Wis.) according to the manufacturer recommendations. Luminescence was determined using an EnVision® Multilabel plate reader 25 min after the addition of detection reagent. IC50 values were then calculated with Xlfit using a logistical 4-parameter fit model in GraphPad Prism (GraphPad Software, San Diego, Calif.) or in Genedata Screener® (Genedata, Basel, Switzerland).

CO[C@]1(CN2CC[C@H]3CCCC[C@@H]3C2)/C=C/C[C@H](C)[C@@H](C)S(=O)(=O)NC(=O)c2ccc3c(c2)N(C[C@@H]2CC[C@H]21)C[C@@]1(CCCc2cc(Cl)ccc21)CO3 (single isomer, unassigned) [Example 89]
pIC50: 5.09

CO[C@]1(CN2CCN3CCN(S(C)(=O)=O)C[C@@H]3C2)/C=C/C[C@H](C)[C@@H](C)S(=O)(=O)NC(=O)c2ccc3c(c2)N(C[C@@H]2CC[C@H]21)C[C@@]1(CCCc2cc(Cl)ccc21)CO3 (stereo in doubt) [Example 227]
IC50: 0.131 µM

CO[C@@]1(CN2CCN3CCN(C(=O)CCS(=O)(=O)c4ccccc4)C[C@H]3C2)/C=C/C[C@H](C)[C@@H](C)S(=O)(=O)NC(=O)c2ccc3c(c2)N(C[C@@H]2CC[C@H]21)C[C@@]1(CCCc2cc(Cl)ccc21)CO3 (single isomer, unassigned) [Example 295]
IC50: 0.104 µM

CO[C@@]1(CN2CCN3CCN(C(=O)CCS(=O)(=O)c4ccccc4)C[C@@H]3C2)/C=C/C[C@H](C)[C@@H](C)S(=O)(=O)NC(=O)c2ccc3c(c2)N(C[C@@H]2CC[C@H]21)C[C@@]1(CCCc2cc(Cl)ccc21)CO3 (single isomer, unassigned) [Example 294]
pIC50: 6.16

CO[C@@]1(CN2CCCN(C(C)C)CC2)/C=C/C[C@H](C)[C@@H](C)S(=O)(=O)NC(=O)c2ccc3c(c2)N(C[C@@H]2CC[C@H]21)C[C@@]1(CCCc2cc(Cl)ccc21)CO3 (stereo in doubt) [Example 331]
IC50: 0.23 µM

CO[C@]1(CN2CC[C@H]3CCCC[C@@H]3C2)/C=C/C[C@H](C)[C@@H](C)S(=O)(=O)NC(=O)c2ccc3c(c2)N(C[C@@H]2CC[C@H]21)C[C@@]1(CCCc2cc(Cl)ccc21)CO3 (stereo in doubt) [Example 86]
IC50: 7.95 µM

CO[C@]1(CN2CCN(C(C)C)[C@H](C)C2)/C=C/C[C@H](C)[C@@H](C)S(=O)(=O)NC(=O)c2ccc3c(c2)N(C[C@@H]2CC[C@H]21)C[C@@]1(CCCc2cc(Cl)ccc21)CO3 [Example 8, (1S,3′R,6′R,7′R,8′E,11′S,12′R)-6-chloro-7′-methoxy-11′,12′-dimethyl-7′-(((3R)-3-methyl-4-(1-methylethyl)-1-piperazinyl)methyl)-3,4-dihydro-2H,15′H-spiro[naphthalene-1,22′-[20]oxa[13]thia[1,14]diazatetracyclo[14.7.2.0˜3,6˜.0˜19,24˜]pentacosa[8,16,18,24]tetraen]-15′-one 13′,13′-dioxide]
IC50: 0.025 µM

CO[C@]1(CN2CCN3CCCC[C@@H]3C2)/C=C/C[C@H](C)[C@@H](C)S(=O)(=O)NC(=O)c2ccc3c(c2)N(C[C@@H]2CC[C@H]21)C[C@@]1(CCCc2cc(Cl)ccc21)CO3 [Example 10, (1S,3′R,6′R,7′R,8′E,11′S,12′R)-6-chloro-7′-methoxy-11′,12′-dimethyl-7′-((9aR)-octahydro-2H-pyrido[1,2-a]pyrazin-2-ylmethyl)-3,4-dihydro-2H,15′H-spiro[naphthalene-1,22′-[20]oxa[13]thia[1,14]diazatetracyclo [14.7.2.0˜3,6˜.0˜19,24˜]pentacosa[8,16,18,24]tetraen]-15′-one 13′,13′-dioxide]
IC50: 0.075 µM

CO[C@@]1(CN2CCN3CCS(=O)(=O)C[C@@H]3C2)/C=C/C[C@H](C)[C@@H](C)S(=O)(=O)NC(=O)c2ccc3c(c2)N(C[C@@H]2CC[C@H]21)C[C@@]1(CCCc2cc(Cl)ccc21)CO3 (single isomer, unassigned) [Example 232]
pIC50: 6.70

CCCO[C@]1(CN2CCN3CCCC[C@@H]3C2)/C=C/C[C@H](C)[C@@H](C)S(=O)(=O)NC(=O)c2ccc3c(c2)N(C[C@@H]2CC[C@H]21)C[C@@]1(CCCc2cc(Cl)ccc21)CO3 [Example 353, (1S,3′R,6′R,7′R,8′E,11′S,12′R)-6-chloro-11′,12′-dimethyl-7′-((9aR)-octahydro-2H-pyrido[1,2-a]pyrazin-2-ylmethyl)-7′-propoxy-3,4-dihydro-2H,15′H-spiro[naphthalene-1,22′-[20]oxa[13]thia[1,14]diazatetracyclo [14.7.2.0~3,6~.0~19,24~]pentacosa[8,16,18,24]tetraen]-15′-one 13′,13′-dioxide]
IC50: 0.186 µM

CO[C@@]1(CN2CCN3CCC(F)(F)C[C@@H]3C2)/C=C/C[C@H](C)[C@@H](C)S(=O)(=O)NC(=O)c2ccc3c(c2)N(C[C@@H]2CC[C@H]21)C[C@@]1(CCCc2cc(Cl)ccc21)CO3 (single isomer, unassigned) [Example 288]
IC50: 0.652 µM

CO[C@]1(CN2CCN3CCN(S(C)(=O)=O)C[C@@H]3C2)/C=C/C[C@H](C)[C@@H](C)S(=O)(=O)NC(=O)c2ccc3c(c2)N(C[C@@H]2CC[C@H]21)C[C@@]1(CCCc2cc(Cl)ccc21)CO3 (single isomer, unassigned) [Example 237]
IC50: 0.064 µM

CO[C@]1(CN2CCN3CCC(F)(F)C[C@H]3C2)/C=C/C[C@H](C)[C@@H](C)S(=O)(=O)NC(=O)c2ccc3c(c2)N(C[C@@H]2CC[C@H]21)C[C@@]1(CCCc2cc(Cl)ccc21)CO3 (single isomer, unassigned) [Example 299]
IC50: 0.456 µM

CO[C@]1(CN2CC[C@@H]3CCCC[C@H]3C2)/C=C/C[C@H](C)[C@@H](C)S(=O)(=O)NC(=O)c2ccc3c(c2)N(C[C@@H]2CC[C@H]21)C[C@@]1(CCCc2cc(Cl)ccc21)CO3 (single isomer, unassigned) [Example 90]
IC50: 8.98 µM

CO[C@@]1(CN2CCN3CCS(=O)(=O)C[C@@H]3C2)/C=C/C[C@H](C)[C@@H](C)S(=O)(=O)NC(=O)c2ccc3c(c2)N(C[C@@H]2CC[C@H]21)C[C@@]1(CCCc2cc(Cl)ccc21)CO3 (single isomer, unassigned) [Example 231]
pIC50: 7.01

CO[C@@]1(CN2CCN3CCC(F)(F)C[C@H]3C2)/C=C/C[C@H](C)[C@@H](C)S(=O)(=O)NC(=O)c2ccc3c(c2)N(C[C@@H]2CC[C@H]21)C[C@@]1(CCCc2cc(Cl)ccc21)CO3 (single isomer, unassigned) [Example 289]
IC50: 0.131 µM

C[C@@H]1[C@@H](C)C/C=C/[C@]2(CN3CCN(C)C[C@@H]3CO2)[C@@H]2CC[C@H]2CN2C[C@@]3(CCCc4cc(Cl)ccc43)COc3ccc(cc32)C(=O)NS1(=O)=O (single isomer, unassigned) [Example 132]
IC50: 0.263 µM

CO[C@@]1(CN2CCN3CCN(C(=O)CCS(=O)(=O)c4ccccc4)C[C@@H]3C2)/C=C/C[C@H](C)[C@@H](C)S(=O)(=O)NC(=O)c2ccc3c(c2)N(C[C@@H]2CC[C@H]21)C[C@@]1(CCCc2cc(Cl)ccc21)CO3 (stereo in doubt) [Example 233]
pIC50: 6.69

CO[C@]1(CN2CCN3CCS(=O)(=O)C[C@@H]3C2)/C=C/C[C@H](C)[C@@H](C)S(=O)(=O)NC(=O)c2ccc3c(c2)N(C[C@@H]2CC[C@H]21)C[C@@]1(CCCc2cc(Cl)ccc21)CO3 (single isomer, unassigned) [Example 220]
pIC50: 7.38

C[C@@H]1[C@@H](C)CCC[C@@](O)(CN2CCN3CCOC[C@@H]3C2)[C@@H]2CC[C@H]2CN2C[C@@]3(CCCc4cc(Cl)ccc43)COc3ccc(cc32)C(=O)NS1(=O)=O [Example 7, (1S,3′R,6′R,7′S,11′S,12′R)-6-chloro-7′-((9aS)-hexahydropyrazino[2,1-c][1,4]oxazin-8(1H)-ylmethyl)-7′-hydroxy-11′,12′-dimethyl-3,4-dihydro-2H,15′H-spiro[naphthalene-1,22′-[20]oxa[13]thia[1,14]diazatetracyclo[14.7.2.0˜3,6˜.0˜19,24˜]pentacosa[16,18,24]trien]-15′-one 13′,13′-dioxide]
IC50: 0.025 µM

CO[C@]1(CN2CCN3CCS(=O)(=O)C[C@@H]3C2)/C=C/C[C@H](C)[C@@H](C)S(=O)(=O)NC(=O)c2ccc3c(c2)N(C[C@@H]2CC[C@H]21)C[C@@]1(CCCc2cc(Cl)ccc21)CO3 (single isomer, unassigned) [Example 221]
pIC50: 6.92

C=CC(=O)N1CCN2CCN(C[C@]3(OC)/C=C/C[C@H](C)[C@@H](C)S(=O)(=O)NC(=O)c4ccc5c(c4)N(C[C@@H]4CC[C@H]43)C[C@@]3(CCCc4cc(Cl)ccc43)CO5)C[C@H]2C1 (stereo in doubt) [Example 234]
IC50: 0.071 µM

CO[C@]1(CN2CCN3CCC(F)(F)C[C@@H]3C2)/C=C/C[C@H](C)[C@@H](C)S(=O)(=O)NC(=O)c2ccc3c(c2)N(C[C@@H]2CC[C@H]21)C[C@@]1(CCCc2cc(Cl)ccc21)CO3 (stereo in doubt) [Example 292]
IC50: 0.399 µM

CO[C@@]1(CN2CCN([C@@H]3CCOC3)CC2)/C=C/C[C@H](C)[C@@H](C)S(=O)(=O)NC(=O)c2ccc3c(c2)N(C[C@@H]2CC[C@H]21)C[C@@]1(CCCc2cc(Cl)ccc21)CO3 (single isomer, unassigned) [Example 286]
IC50: 0.05 µM

CO[C@]1(CN2CCN3CCN(S(C)(=O)=O)C[C@@H]3C2)/C=C/C[C@H](C)[C@@H](C)S(=O)(=O)NC(=O)c2ccc3c(c2)N(C[C@@H]2CC[C@H]21)C[C@@]1(CCCc2cc(Cl)ccc21)CO3 (single isomer, unassigned) [Example 238]
pIC50: 7.12

CO[C@]1(CN2CCN3CCC[C@@H]3C2)/C=C/C[C@H](C)[C@@H](C)S(=O)(=O)NC(=O)c2ccc3c(c2)N(C[C@@H]2CC[C@H]21)C[C@@]1(CCCc2cc(Cl)ccc21)CO3 [Example 83]
IC50: 0.245 µM

CO[C@@]1(CN2CCN3CCN(C)C[C@@H]3C2)/C=C/C[C@H](C)[C@@H](C)S(=O)(=O)NC(=O)c2ccc3c(c2)N(C[C@@H]2CC[C@H]21)C[C@@]1(CCCc2cc(Cl)ccc21)CO3 (stereo in doubt) [Example 210]
IC50: 0.185 µM

CO[C@@]1(CN2CCN3CCC(F)(F)CC3C2)/C=C/C[C@H](C)[C@@H](C)S(=O)(=O)NC(=O)c2ccc3c(c2)N(C[C@@H]2CC[C@H]21)C[C@@]1(CCCc2cc(Cl)ccc21)CO3 (mixture of isomers) [Example 273]
IC50: 0.501 µM
